Where “and” joins values, the source holds several entries; their conditions need not be identical. Equal entries are not always repeated. Where two headings read alike, the source gives them in different places.
Legend:
Conditions in all cases: in vivo
[1] = tested on: downy mildew (Pseudoperonospora cubensis)
[2] = tested on: late blight (Phytophthora infestans)
[3] = tested on: downy mildew (Pseudoperonospora cubensis); remark: listed apart in the source
[4] = tested on: downy mildew (Pseudoperonospora cubensis); remark: listed apart in the source
[5] = tested on: downy mildew (Pseudoperonospora cubensis); remark: listed apart in the source
[6] = tested on: late blight (Phytophthora infestans); remark: listed apart in the source
[7] = tested on: downy mildew (Pseudoperonospora cubensis); remark: listed apart in the source

SMILES	Incidence rate [1]	Incidence rate [4]	Incidence rate [7] [%]	other results
COCC(=O)N(c1c(C)cccc1C)C(C)C(=O)OC (racemic) [Metalaxyl, methyl N-(2-methoxyacetyl)-N-(2,6-xylyl)-DL-alaninate]	60% and 100%	–	–	–
CO/N=C(/C(=O)OC)c1ccccc1COc1ccccc1C [Compound (b), methyl (E)-methoxyimino[α-(o-tolyloxy)-O-tolyl]acetate]	100%	–	–	–
CCNC(=O)NC(=O)C(C#N)=NOC [Cymoxanil, 1-(2-cyano-2-methoxyiminoacetyl)-3-ethylurea]	–	–	–	Incidence rate [2]: 100%
Cc1ccc(-c2c(Cl)nc(C#N)n2S(=O)(=O)N(C)C)cc1 [Compound No. 1, 4-chloro-2-cyano-1-dimethylsulfamoyl-5-(4-methylphenyl)imidazole]	–	85% and 90%	–	Lesion-free Area Ratio [3]: 65%; Incidence rate [5]: 87% and 95%; Incidence rate [6]: 47% and 50% and 31% and 37%
O=P([O-])([O-])O.[K+].[K+] [K2HPO4, dipotassium hydrogenphosphate]	–	95%	95	–
OP(O)O [H2(PO3H), phosphorous acid]	–	75%	75	–
O=P([O-])([O-])O.[Na+].[Na+] [Na2HPO4, disodium hydrogenphosphate]	–	100%	100	–
CO/C=C(/C(=O)OC)c1ccccc1Oc1cc(Oc2ccccc2C#N)ncn1 [Compound (a), methyl (E)-2-{2-[6-(2-cyanophenoxy)pyrimidin-4-yloxy]phenyl}-3-methoxyacrylate]	–	–	–	Theoretical incidence rate (Colby's formula) [1]: 100 (100) %
COc1ccc(C(=CC(=O)N2CCOCC2)c2ccc(Cl)cc2)cc1OC [Dimethomorph, (E,Z)-4-[(3-(4-chlorophenyl)-3-(3,4-dimethoxyphenyl)acryloyl]morpholine]	50% and 60%	–	–	Incidence rate [2]: 85% and 100%
